Results: ChEMBL document CHEMBL1144588, “Synthesis and SAR of 3,5-diamino-piperidine derivatives: novel antibacterial translation inhibitors as aminoglycoside mimetics” (Bioorg Med Chem Lett, 2007)
Converted amounts (≈) assume the structure as drawn.

What was measured:
Escherichia coli = assay: Inhibition of protein synthesis in Escherichia coli by coupled transcription-translation assay; format: functional, organism-based
Staphylococcus aureus = assay: Antibacterial activity against Staphylococcus aureus ATCC 25923; format: functional
Pseudomonas aeruginosa = assay: Antimicrobial activity against Pseudomonas aeruginosa; format: functional

Compound | IC50 (Escherichia coli) [µM] | MIC (Staphylococcus aureus) [µg/mL] | MIC90 (Pseudomonas aeruginosa) [µg/mL]
Cc1ccc(S(=O)(=O)N(Cc2ccccc2)c2ccc(Nc3nc(N4CCCC(O)C4)nc(N4C[C@H](N)C[C@H](N)C4)n3)cc2O)cc1 (some centres undefined) | 44 | 8 (≈ 12.1 µM) | –
N[C@@H]1C[C@H](N)CN(c2nc(Nc3ccc(NC(=O)c4ccc(Cl)cc4)c(O)c3)nc(N3CCCC(O)C3)n2)C1 (some centres undefined) | 40 | 32 (≈ 57.8 µM) | –
Cc1ccc(S(=O)(=O)N(Cc2ccccc2)c2ccc(Nc3nc(N4CC(N)C4)nc(N4C[C@H](N)C[C@H](N)C4)n3)cc2O)cc1 | 11 | 160 (≈ 254 µM) | –
NC[C@@H]1C[C@H](N)CN1c1nc(Nc2ccc(NC(=O)c3ccc4ccccc4c3O)cc2)nc(N2C[C@H](N)C[C@@H]2CN)n1 | 8 | – | –
N[C@@H]1C[C@H](N)CN(c2nc(Nc3ccc(NC(=O)c4ccc5ccccc5c4O)cc3)nc(N3CCCC(O)C3)n2)C1 (some centres undefined) | 310 | 16 (≈ 28.1 µM) | –
Cc1ccc(S(=O)(=O)N(Cc2ccccc2)c2ccc(Nc3nc(N4CCC(C(N)=O)CC4)nc(N4C[C@H](N)C[C@H](N)C4)n3)cc2O)cc1 | > 1000 | – | –
Cc1ccc(S(=O)(=O)N(Cc2ccccc2)c2ccc(Nc3nc(N4C[C@H](N)C[C@H](N)C4)nc(N4C[C@@H](N)C[C@H]4CN)n3)cc2O)cc1 | 13 | 2 (≈ 2.97 µM) | –
NC[C@@H]1C[C@H](CN)CN(c2nc(Nc3ccc(NC(=O)c4ccc(Cl)cc4)c(O)c3)nc(N3C[C@H](N)C[C@H](N)C3)n2)C1 | 11 | 16 (≈ 26.8 µM) | –
NCCN(CCN)c1nc(Nc2ccc(NC(=O)c3ccc4ccccc4c3O)cc2)nc(N(CCN)CCN)n1 | 7 | – | –
N[C@@H]1C[C@H](N)CN(c2nc(Nc3ccc(NC(=O)c4ccc(Cl)cc4)c(O)c3)nc(N3C[C@H](N)C[C@H](N)C3)n2)C1 | – | 16 (≈ 28.2 µM) | 8 (≈ 14.1 µM)
O=C(N[C@H](CO)[C@H](O)c1ccc([N+](=O)[O-])cc1)C(Cl)Cl [CHLORAMPHENICOL] | – | 8 (≈ 24.8 µM) | –
Cc1ccc(S(=O)(=O)N(Cc2ccccc2)c2ccc(Nc3nc(N4C[C@H](N)C[C@H](N)C4)nc(N4C[C@@H](N)C[C@@H](O)C4)n3)cc2O)cc1 | 17 | 16 (≈ 23.7 µM) | –
CN[C@@H]1C[C@H](NC)CN(c2nc(Nc3ccc(Cl)c(Cl)c3)nc(N3C[C@H](NC)C[C@H](NC)C3)n2)C1 | 5 | – | –
N[C@@H]1C[C@H](N)CN(c2nc(Nc3ccc(NC(=O)c4ccc5ccccc5c4O)cc3)nc(N3C[C@H](N)C[C@H](N)C3)n2)C1 | 7 | – | –
N[C@@H]1C[C@H](N)CN(c2nc(Nc3ccc(NC(=O)c4ccc5ccccc5c4O)cc3)nc(N3C[C@@H](O)[C@@H](O)C3)n2)C1 | 72 | 32 (≈ 56 µM) | –
N[C@@H]1C[C@H](N)CN(c2nc(Nc3ccc(NC(=O)c4ccc(Cl)cc4)c(O)c3)nc(N3C[C@@H](N)C[C@@H](O)C3)n2)C1 | 40 | 64 (≈ 112 µM) | –
N[C@@H]1C[C@H](O)CN(c2nc(Nc3ccc(NC(=O)c4ccc5ccccc5c4O)cc3)nc(N3C[C@@H](N)C[C@@H](O)C3)n2)C1 | 100 | – | –
Cc1ccc(S(=O)(=O)N(Cc2ccccc2)c2ccc(Nc3nc(N4C[C@H](N)C[C@H](N)C4)nc(N4C[C@@H](N)C[C@H]4CO)n3)cc2O)cc1 | 15 | 8 (≈ 11.9 µM) | –
N[C@@H]1C[C@H](N)CN(c2nc(Nc3ccc(NC(=O)c4ccc(Cl)cc4)c(O)c3)nc(N3C[C@@H](N)[C@@H](N)C3)n2)C1 | 58 | 16 (≈ 28.9 µM) | –
N[C@@H]1C[C@H](N)CN(c2nc(Nc3ccc(Cl)c(Cl)c3)nc(N3C[C@H](N)C[C@H](N)C3)n2)C1 | 10 | – | –
NC[C@@H]1CN(c2nc(Nc3ccc(NC(=O)c4ccc(Cl)cc4)c(O)c3)nc(N3C[C@H](N)C[C@H](N)C3)n2)CC[C@@H]1O | 31 | 32 (≈ 54.9 µM) | –
NC[C@H]1[C@@H](O)CCN1c1nc(Nc2ccc(NC(=O)c3ccc(Cl)cc3)c(O)c2)nc(N2C[C@H](N)C[C@H](N)C2)n1 | 19 | 32 (≈ 56.2 µM) | –
NCCN(CCN)c1nc(Nc2ccc(NC(=O)c3ccc4ccccc4c3O)cc2)nc(N2C[C@H](N)C[C@H](N)C2)n1 | 10 | 8 (≈ 14 µM) | –
NC[C@@H]1CN(c2nc(Nc3ccc(NC(=O)c4ccc5ccccc5c4O)cc3)nc(N3C[C@H](N)C[C@H](N)C3)n2)CC[C@@H]1O | 21 | 16 (≈ 26.7 µM) | –
N[C@@H]1C[C@H](N)CN(c2nc(Nc3ccc(NC(=O)c4ccc(Cl)cc4)c(O)c3)nc(N3C[C@@H](O)[C@@H](O)C3)n2)C1 | 77 | 64 (≈ 115 µM) | –

Next, values leading:

IC50 (Escherichia coli) [µM] | MIC (Staphylococcus aureus) [µg/mL] | MIC90 (Pseudomonas aeruginosa) [µg/mL] | Compound
1 | 8 (≈ 12.1 µM) | – | Cc1ccc(S(=O)(=O)N(Cc2ccccc2)c2ccc(Nc3nc(N(CCN)CCN)nc(N4C[C@H](N)C[C@H](N)C4)n3)cc2O)cc1
12 | 32 (≈ 56.3 µM) | – | NC[C@@H]1C[C@H](N)CN1c1nc(Nc2ccc(NC(=O)c3ccc(Cl)cc3)c(O)c2)nc(N2C[C@H](N)C[C@H](N)C2)n1
16 | – | – | N[C@@H]1C[C@H](N)CN(c2ncnc(Nc3ccc(NC(=O)c4ccc5ccccc5c4O)cc3)n2)C1
> 1000 | – | – | NC1CCCN(c2nc(Nc3ccc(Cl)c(Cl)c3)nc(N3CCCC(N)C3)n2)C1 (centres undefined)
18 | 32 (≈ 57.5 µM) | – | NCCN(CCN)c1nc(Nc2ccc(NC(=O)c3ccc(Cl)cc3)c(O)c2)nc(N2C[C@H](N)C[C@H](N)C2)n1
27 | 16 (≈ 23.2 µM) | – | Cc1ccc(S(=O)(=O)N(Cc2ccccc2)c2ccc(Nc3nc(N4C[C@H](N)C[C@H](N)C4)nc(N4CC[C@H](O)[C@H](CN)C4)n3)cc2O)cc1
8 | 4 (≈ 6.54 µM) | – | NC[C@@H]1C[C@H](CN)CN(c2nc(Nc3ccc(NC(=O)c4ccc5ccccc5c4O)cc3)nc(N3C[C@H](N)C[C@H](N)C3)n2)C1
43 | 32 (≈ 48.4 µM) | – | Cc1ccc(S(=O)(=O)N(Cc2ccccc2)c2ccc(Nc3nc(N4C[C@H](N)C[C@H](N)C4)nc(N4C[C@@H](O)[C@@H](O)C4)n3)cc2O)cc1
1 | 8 (≈ 11.4 µM) | – | Cc1ccc(S(=O)(=O)N(Cc2ccccc2)c2ccc(Nc3nc(N4C[C@H](N)C[C@H](N)C4)nc(N4C[C@H](CN)C[C@H](CN)C4)n3)cc2O)cc1
10 | 2 (≈ 3.43 µM) | – | NC[C@@H]1C[C@H](N)CN1c1nc(Nc2ccc(NC(=O)c3ccc4ccccc4c3O)cc2)nc(N2C[C@H](N)C[C@H](N)C2)n1
13 | 32 (≈ 56.2 µM) | – | N[C@@H]1C[C@H](N)CN(c2nc(Nc3ccc(NC(=O)c4ccc(Cl)cc4)c(O)c3)nc(N3C[C@@H](N)C[C@H]3CO)n2)C1
10 | 16 (≈ 27.4 µM) | – | NC[C@H]1[C@@H](O)CCN1c1nc(Nc2ccc(NC(=O)c3ccc4ccccc4c3O)cc2)nc(N2C[C@H](N)C[C@H](N)C2)n1
800 | – | – | NC1CCN(c2nc(Nc3ccc(Cl)c(Cl)c3)nc(N3CCC(N)CC3)n2)CC1
21 | 8 (≈ 11.9 µM) | – | Cc1ccc(S(=O)(=O)N(Cc2ccccc2)c2ccc(Nc3nc(N4C[C@H](N)C[C@H](N)C4)nc(N4CC[C@H](O)[C@@H]4CN)n3)cc2O)cc1
36 | 16 (≈ 24.2 µM) | – | Cc1ccc(S(=O)(=O)N(Cc2ccccc2)c2ccc(Nc3nc(N4C[C@H](N)C[C@H](N)C4)nc(N4C[C@@H](N)[C@@H](N)C4)n3)cc2O)cc1
14 | – | – | NC1CN(c2nc(Nc3ccc(NC(=O)c4ccc(Cl)cc4)c(O)c3)nc(N3C[C@H](N)C[C@H](N)C3)n2)C1
> 1000 | – | – | NC(=O)C1CCN(c2nc(Nc3ccc(NC(=O)c4ccc(Cl)cc4)c(O)c3)nc(N3C[C@H](N)C[C@H](N)C3)n2)CC1
19 | 8 (≈ 13.7 µM) | – | N[C@@H]1C[C@H](N)CN(c2nc(Nc3ccc(NC(=O)c4ccc5ccccc5c4O)cc3)nc(N3C[C@@H](N)C[C@H]3CO)n2)C1
17 | 8 (≈ 13.7 µM) | – | N[C@@H]1C[C@H](N)CN(c2nc(Nc3ccc(NC(=O)c4ccc5ccccc5c4O)cc3)nc(N3C[C@@H](N)C[C@@H](O)C3)n2)C1
8 | 8 (≈ 13.1 µM) | – | CN[C@@H]1C[C@H](NC)CN(c2nc(Nc3ccc(NC(=O)c4ccc5ccccc5c4O)cc3)nc(N3C[C@H](N)C[C@H](N)C3)n2)C1
3 | 8 (≈ 11.9 µM) | – | Cc1ccc(S(=O)(=O)N(Cc2ccccc2)c2ccc(Nc3nc(N4C[C@H](N)C[C@H](N)C4)nc(N4C[C@H](N)C[C@H](N)C4)n3)cc2O)cc1
